Laboratory results taken from patent EP4737449A1 (Changchun Genescience Pharmaceutical Co., Ltd., priority 2023, dated 2025).

target: T1, p53-Y220C mutant protein (Homo sapiens, UniProt P04637, Y220C); assay: In vitro DNA binding activity assay (TR-FRET); type: biochemical; conditions: concentration required to increase the binding activity of protein to DNA by 50%
T1 construct: The recombinant Y220C p53 DBD protein with his-tag
Description: The activity of the compound to modulate the binding of the p53-Y220C mutant protein to DNA was detected using TR-FREt (Time-Resolved Fluorescence Resonance Energy Transfer). The recombinant Y220C p53 DBD protein with his-tag and the DNA sequence with biotin label were prepared firstly. Donor Eu(Europium)-SA(Streptavidin) can be bound to the DNA sequence through biotin, receptor for his antibody attached to alphaphycocyanin(APC, allophycocyanin), and his antibody can be bound to the Y220C p53 DBD protein with his-tag. When exposed to an excitation light with a wavelength of 340 nm, the donor Eu(Europium)-SA(Streptavidin) can emit fluorescence with a wavelength of 615 nm. If the donor and the receptor are close to each other, the donor will transfer part of the energy to the receptor and produce fluorescence with a wavelength of 665 nm. […] If there is no interaction, only 615 nm fluorescence is produced. • 1) Experimental steps • a. Adding 4 µL of dilute compound solution to each well of a 384-well microplate; • a. Adding 4 µL of 4X P53 working solution to each well of the 384-well microplate; • c. Sealing the 384-well microplate and equilibrating the system at room temperature for 60 min; • d. Adding 4 µl of biotin DNA solution to the 384-well microplate; • e. Adding 4 µl of 4X test solution (MAb Anti-6His-Eu and streptavidin-d2) to each well of the 384-well microplate; • f. Incubating overnight in the dark; and • g. Reading data of 665 nm and 615 nm wavelengths on the BMG multifunctional microplate reader. • 2) Data analysis • a. Calculating the ratio for each well (Ratio665 nm/615 nm-Ratiobackground); • b. Calculating the activity percentage (%activity) as follows: C = (Ave_Ac−Ave_Ba)/(Ave_Dc−Ave_Bd) [formula] R data = (A−Ave_Ba−CD)/(D−Ave_Bd)*(Ave_Dc−Ave_Bd) [formula] % Activity = R data/Ave_VC*100 [formula] • A: Fluorescence intensity of the sample at 665 nm; D: Fluorescence intensity of the sample at 615 nm; • Ba: Background fluorescence intensity of the culture plate at 665 nm; Bd: Background fluorescence intensity of the culture plate at 615 nm; • Dc: Background fluorescence intensity of HIS-E at 615 nm; Ac: Background fluorescence intensity of streptavidin-d2 at 665 nm); and • c. Calculating SC150 and plotting dose-effect curve
Compared to the absence of the compound of the present invention, the activation percentage of binding of the p53 mutant protein to DNA in the presence of the compound of the present invention is expressed as SC150, which indicates the concentration of the compound required to increase the DNA binding activity of the p53 mutant protein by 50%. The SC150 is calculated using Prism™.

| SC150 [nM] | SMILES |
| --- | --- |
| 32 | CN(C)C1CC[C@@H](Nc2cccc3c(CC(F)(F)F)c(C#CCNC(=O)c4cnn(C(C)(C)C)c4N)nn23)[C@@H](F)C1 (single isomer, unassigned) [Compound 358-B] |
| 8 | CN1CCCC(Nc2cccc3c(CC(F)(F)F)c(C#CCNC(=O)c4cnn(C(C)(C)C)c4N)nn23)CC1 (single isomer, unassigned) [Compound 369-A, 5-amino-1-tert-butyl-N-(3-(7-[(1-methylazepan-4-yl)amino]-3-(2,2,2-trifluoroethyl)pyrazolo[1,5-a]pyridin-2-yl)prop-2-yn-1-yl)-1H-pyrazole-4-carboxamide] |
| 5 | CN1CCCC(Nc2cccc3c(CC(F)(F)F)c(C#CCNC(=O)c4cnn(C(C)(C)C)c4N)nn23)CC1 (single isomer, unassigned) [Compound 369-B, 5-amino-1-tert-butyl-N-(3-(7-[(1-methylazepan-4-yl)amino]-3-(2,2,2-trifluoroethyl)pyrazolo[1,5-a]pyridin-2-yl)prop-2-yn-1-yl)-1H-pyrazole-4-carboxamide] |
| 16 | CN1CC[C@@H](Nc2cccc3c(CC(F)(F)F)c(C#CCNC(=O)c4cnn(C5CC5)c4)nn23)[C@@H](F)C1 [Compound 005, 1-cyclopropyl-N-[3-(7-{[(3S,4R)-3-fluoro-1-methylpiperidin-4-yl]amino}-3-(2,2,2-trifluoroethyl)pyrazolo[1,5-a]pyridin-2-yl)prop-2-yn-1-yl]-1H-pyrazole-4-carboxamide] |
| 11 | CN1CC[C@@H](Nc2cccc3c(CC(F)(F)F)c(C#CCNC(=O)c4cnn(C5CCC5)c4)nn23)[C@@H](F)C1 [Compound 006, 1-cyclobutyl-N-[3-(7-{[(3S,4R)-3-fluoro-1-methylpiperidin-4-yl]amino}-3-(2,2,2-trifluoroethyl)pyrazolo[1,5-a]pyridin-2-yl)prop-2-yn-1-yl]-1H-pyrazole-4-carboxamide] |
| 11 | CN1CC[C@@H](Nc2cccc3c(CC(F)(F)F)c(C#CCNC(=O)c4cnn(C5CCCC5)c4)nn23)[C@@H](F)C1 [Compound 007, 1-cyclopentyl-N-[3-(7-{[(3S,4R)-3-fluoro-1-methylpiperidin-4-yl]amino}-3-(2,2,2-trifluoroethyl)pyrazolo[1,5-a]pyridin-2-yl)prop-2-yn-1-yl]-1H-pyrazole-4-carboxamide] |
| 7 | CN1CC[C@@H](Nc2cccc3c(CC(F)(F)F)c(C#CCNC(=O)c4cnn(C5COC5)c4)nn23)[C@@H](F)C1 [Compound 009, N-[3-(7-{[(3S,4R)-3-fluoro-1-methylpiperidin-4-yl]amino}-3-(2,2,2-trifluoroethyl)pyrazolo[1,5-a]pyridin-2-yl)prop-2-yn-1-yl]-1-(oxetan-3-yl)-1H-pyrazole-4-carboxamide] |
| 9 | CN1CC[C@@H](Nc2cccc3c(CC(F)(F)F)c(C#CCNC(=O)c4cnn(C5(C)CC5)c4)nn23)[C@@H](F)C1 [Compound 010, N-[3-(7-{[(3S,4R)-3-fluoro-1-methylpiperidin-4-yl]amino}-3-(2,2,2-trifluoroethyl)pyrazolo[1,5-a]pyridin-2-yl)prop-2-yn-1-yl]-1-(1-methylcyclopropyl)-1H-pyrazole-4-carboxamide] |
| 4 | CN1CCC(n2cc(C(=O)NCC#Cc3nn4c(N[C@@H]5CCN(C)C[C@@H]5F)cccc4c3CC(F)(F)F)cn2)CC1 [Compound 012, N-[3-(7-{[(3S,4R)-3-fluoro-1-methylpiperidin-4-yl]amino}-3-(2,2,2-trifluoroethyl)pyrazolo[1,5-a]pyridin-2-yl)prop-2-yn-1-yl]-1-(1-methylpiperidin-4-yl)-1H-pyrazole-4-carboxamide] |
| 7 | CN1CC[C@@H](Nc2cccc3c(CC(F)(F)F)c(C#CCNC(=O)c4cnn(C5CCOCC5)c4)nn23)[C@@H](F)C1 [Compound 013, N-[3-(7-{[(3S,4R)-3-fluoro-1-methylpiperidin-4-yl]amino}-3-(2,2,2-trifluoroethyl)pyrazolo[1,5-a]pyridin-2-yl)prop-2-yn-1-yl]-1-((tetrahydro-2H-pyran-4-yl))-1H-pyrazole-4-carboxamide] |
